Results on one molecule are retold here after patent EP1066315B1 (University of Dundee, priority 1998, dated 2008).

Test [1] has as its system peripheral blood mononuclear cells (PBMC) / autologous TTCF specific T cell clones. In words: TTCF antigen presentation by PBMC, read out as proliferation of autologous T cell clones. The test is classed as cell-based, human. The conditions noted are these: PBMC, 1 mg/ml peptide, between 30 and 60 minutes of antigen pulsing; Fig 9a. As for the experimental part:
The invention will now be described by reference to the following Examples and Figures wherein • Figure 1: Processing of TTCF by a leupeptin-insensitive cysteine endopeptidase activity. (a) TTCF was digested in vitro in the presence of disrupted lysosomes (1-2 µg) in the presence or absence of iodoacetamide (1 mM), leupeptin, E64 or pepstatin (each at 0.1 mg/ml). Digestions were in 0.1 M NH4 acetate at pH 4.5 or Na2HPO4, pH 6.0 or 7.0. After 4 hours at 37°C, the reactions were separated by Tris-tricine SDS-PAGE and stained with Coomassie Blue. (b) Cleavage sites: TTCF digestion products were separated by SDS PAGE and electrophoretically transferred to nitrocellulose membrane. Individual fragments numbered 1-6 were subjected to 5 cycles of Edman degradation. N-terminal sequence obtained is shown in bold following upstream residues from TTCF (tetanus toxin numbering). The N-terminal sequence of His-tagged TTCF was obtained for fragments 1 and 3. (c) Residues Asn 1184 and Glu 1184 in TTCF were mutated to alanine (see Methods) and digestions performed as before. The mutation abolishes cleavage at the mutated site but not at the first site (doublet at 47 kD). In this experiment cleavage of the third site was minimal. • Figure 2: TTCF is processed by an asparaginyl endopeptidase. (a) Chromatography of the TTCF processing activity on Mono-S resin. Fractions eluted by NaCl gradient were incubated with the substrates Z-Ala-Ala-Asn-NHMec or Z-Phe-Arg-NHMec in the presence or absence of E64 (trans-epoxysuccinyl-L-leucylamido-(4-guanidino)butane). […] (b) Fractions as above were incubated with 10 µg TTCF in the presence or absence of E64 for 4 hours at 37°C prior to SDS-PAGE analysis. (c) Each fraction was analysed by SDS-PAGE and Western blotting. Electrophoretically transferred material was probed with an affinity purified antiserum raised against the peptide KGIGSGKVLKSGPQC from human legumain^1. • Figure 3: Peptide inhibitors of AEP block asparaginyl endopeptidase activity and TTCF processing in vitro and in vivo. (a) TTCF was digested with purified AEP (legumain from pig kidney) in the presence or absence of 0.2 mg/ml of the peptides indicated. […] (b) Purified AEP or a crude lysosomal protease mixture were incubated with Z-Ala-Ala-Asn-NHMec, Z-Phe-Arg-NHMec (cathepsins L&B) or Z-Val-Val-Ala NHMec (cathepsin S) in the presence of increasing concentrations of AENK or AEQK. Release of 7-amino-4-methyl coumarin was measured after 10, 20 or 30 minutes. […] At different times the cells were washed, fixed in 0.05 % glutaraldehyde and co-cultured with autologous TTCF specific T cell clones. […] Proteins obtained from commercial sources, as described in the literature or custom peptides were digested with purified pig kidney legumain at pH 5.5 in the presence of 1 mM DTT. […] When present peptide was maintained during antigen pulsing at 1 mg/ml (a) or 2 mg/ml (b). At different times the cells were washed, fixed in 0.05 % glutaraldehyde and antigen presentation measured using proliferation of different autologous TTCF-specific T cell clones. c, AEP pre-processing of TTCF speeds antigen presentation. […] Presentation was measured after 60 minutes of antigen pulsing using EBV B cells.
If AEP plays a role in TTCF processing in antigen presenting cells then sufficiently high levels of the competing AENK peptide might be expected to interfere with normal class II MHC loading of TTCF epitopes. Following a 15 minute preincubation with or without tetrapeptides, freshly isolated peripheral blood mononuclear cells (PBMC) were incubated with TTCF antigen in the continued presence or absence of the peptides. At different times, the cells were washed, fixed and then co-cultured with different autologous T cell clones to assess expression of different peptide/MHC complexes. […] At later times there was some recovery of presentation of these epitopes as expected for a competitive inhibitor. […]

Test [2] relates to purified AEP (legumain from pig kidney). Description: Digestion of TTCF with purified AEP in the presence of tetrapeptides. It counts as biochemical. The conditions noted are these: 0.2 mg/ml peptide; Fig 3a. Here is the method: The invention will now be described by reference to the following Examples and Figures wherein • Figure 1: Processing of TTCF by a leupeptin-insensitive cysteine endopeptidase activity. (a) TTCF was digested in vitro in the presence of disrupted lysosomes (1-2 µg) in the presence or absence of iodoacetamide (1 mM), leupeptin, E64 or pepstatin (each at 0.1 mg/ml). Digestions were in 0.1 M NH4 acetate at pH 4.5 or Na2HPO4, pH 6.0 or 7.0. After 4 hours at 37°C, the reactions were separated by Tris-tricine SDS-PAGE and stained with Coomassie Blue. (b) Cleavage sites: TTCF digestion products were separated by SDS PAGE and electrophoretically transferred to nitrocellulose membrane. Individual fragments numbered 1-6 were subjected to 5 cycles of Edman degradation. N-terminal sequence obtained is shown in bold following upstream residues from TTCF (tetanus toxin numbering). The N-terminal sequence of His-tagged TTCF was obtained for fragments 1 and 3. (c) Residues Asn 1184 and Glu 1184 in TTCF were mutated to alanine (see Methods) and digestions performed as before. The mutation abolishes cleavage at the mutated site but not at the first site (doublet at 47 kD). In this experiment cleavage of the third site was minimal. • Figure 2: TTCF is processed by an asparaginyl endopeptidase. (a) Chromatography of the TTCF processing activity on Mono-S resin. Fractions eluted by NaCl gradient were incubated with the substrates Z-Ala-Ala-Asn-NHMec or Z-Phe-Arg-NHMec in the presence or absence of E64 (trans-epoxysuccinyl-L-leucylamido-(4-guanidino)butane). […] (b) Fractions as above were incubated with 10 µg TTCF in the presence or absence of E64 for 4 hours at 37°C prior to SDS-PAGE analysis. (c) Each fraction was analysed by SDS-PAGE and Western blotting. Electrophoretically transferred material was probed with an affinity purified antiserum raised against the peptide KGIGSGKVLKSGPQC from human legumain^1. • Figure 3: Peptide inhibitors of AEP block asparaginyl endopeptidase activity and TTCF processing in vitro and in vivo. […] Release of 7-amino-4-methyl coumarin was measured after 10, 20 or 30 minutes. […] At different times the cells were washed, fixed in 0.05 % glutaraldehyde and antigen presentation measured using proliferation of different autologous TTCF-specific T cell clones. c, AEP pre-processing of TTCF speeds antigen presentation. […] Presentation was measured after 60 minutes of antigen pulsing using EBV B cells.
We decided to test the possibility that high concentrations of asparagine containing peptides might act as competitive inhibitors. […] To establish that inhibition of AEP was specific, we measured the hydrolysis of different synthetic peptide substrates in the presence and absence of these tetrapeptides.

For test [3], the system named is EBV-transformed B cells / autologous TTCF-specific T cell clones. Description: TTCF antigen presentation by EBV-transformed B cells, read out as proliferation of autologous T cell clones. It counts as cell-based, human. Conditions: EBV-B cells from donor, 2 mg/ml peptide; Fig 9b. Here is the method: The invention will now be described by reference to the following Examples and Figures wherein • Figure 1: Processing of TTCF by a leupeptin-insensitive cysteine endopeptidase activity. (a) TTCF was digested in vitro in the presence of disrupted lysosomes (1-2 µg) in the presence or absence of iodoacetamide (1 mM), leupeptin, E64 or pepstatin (each at 0.1 mg/ml). Digestions were in 0.1 M NH4 acetate at pH 4.5 or Na2HPO4, pH 6.0 or 7.0. After 4 hours at 37°C, the reactions were separated by Tris-tricine SDS-PAGE and stained with Coomassie Blue. (b) Cleavage sites: TTCF digestion products were separated by SDS PAGE and electrophoretically transferred to nitrocellulose membrane. Individual fragments numbered 1-6 were subjected to 5 cycles of Edman degradation. N-terminal sequence obtained is shown in bold following upstream residues from TTCF (tetanus toxin numbering). The N-terminal sequence of His-tagged TTCF was obtained for fragments 1 and 3. (c) Residues Asn 1184 and Glu 1184 in TTCF were mutated to alanine (see Methods) and digestions performed as before. The mutation abolishes cleavage at the mutated site but not at the first site (doublet at 47 kD). In this experiment cleavage of the third site was minimal. • Figure 2: TTCF is processed by an asparaginyl endopeptidase. (a) Chromatography of the TTCF processing activity on Mono-S resin. Fractions eluted by NaCl gradient were incubated with the substrates Z-Ala-Ala-Asn-NHMec or Z-Phe-Arg-NHMec in the presence or absence of E64 (trans-epoxysuccinyl-L-leucylamido-(4-guanidino)butane). […] (c) Each fraction was analysed by SDS-PAGE and Western blotting. […] Release of 7-amino-4-methyl coumarin was measured after 10, 20 or 30 minutes. […] At different times the cells were washed, fixed in 0.05 % glutaraldehyde and antigen presentation measured using proliferation of different autologous TTCF-specific T cell clones. c, AEP pre-processing of TTCF speeds antigen presentation. […] Presentation was measured after 60 minutes of antigen pulsing using EBV B cells. […]

Residues, ends and D or L forms follow the SMILES beside them. *: point of attachment. Fmoc = O=C(OCC1c2ccccc2-c2ccccc21)*

Consider `C[C@H](NC(=O)OCC1c2ccccc2-c2ccccc21)C(=O)N[C@@H](CCC(=O)O)C(=O)N[C@@H](CCC(N)=O)C(=O)N[C@@H](CCCCN)C(N)=O` [AEQK] (Fmoc-AEQK-NH2), for which the “presentation to most clones (eg AK 5, 90 & 6) at early times” value in test [1] is “detectable”. In test [2], the “inhibition of processing of TTCF by AEP” value is “did not inhibit”. Also, in test [3], the “antigen presentation by EBV-B cells” value was “virtually no effect”.
